# Experiments:
# [1] = system: EEG SWA / behavioral responsiveness; conditions: during TCI dexmedetomidine sedation; expected, based on Sleigh and colleagues
# Source text: Participants will undergo three arousals during this phase of the experiment: one during in-phase stimulation, one during anti-phase stimulation, and one during sham stimulation (FIG. 13). The order of CLASS conditions under which a participant will be aroused is the same as in Phase 2, which is balanced across participants. Each arousal will be preceded by at least three consecutive minutes of acoustic stimulation, which will continue during the arousal procedure. The arousal procedure consists of the same ramping thermal stimulation used during pre-sedation QST. The cardinal difference between pre-sedation QST and arousal QST is that one of the investigators will be tasked with pressing the button to end the thermal ramp instead of the sedated participant. The investigator will end the arousal protocol as soon as they observe purposeful behavior in response to the thermal stimulation. The investigator will also be able to terminate the thermal stimulation at their clinical discretion. Vital signs, EEG, and video recording will allow review of the time of arousal during post-hoc analysis. […] Assessors of arousal will be blinded to the acoustic stimulation conditions. Once a participant has been definitively aroused, thermal stimulation will cease. […]
# [2] = healthy volunteers; conservative estimate; cited from earlier work
# [3] = infused for several hours to days at 1.5 mcg/kg/hr, critically ill patients; cited from earlier work
# [4] = system: alpha2 receptors; conditions: cited from earlier work
# [5] = target effect site concentrations of 2.0-4.0 ng/ml, most participants
smiles,measurement,setting,value
Cc1cccc([C@H](C)c2cnc[nH]2)c1C [dexmedetomidine],time for EEG SWA to return to pre-arousal levels,[1],≤ 10 min
same,time to return to a state of unresponsiveness after thermal arousal,[1],≤ 60 s
same,equilibration constant (t1/2 ke0),[2],3 min
same,steady-state concentration,[3],2.5 to 3.0 ng/mL
same,most common adverse events,[4]; dexmedetomidine infusions,"bradycardia, hypotension and hypertension"
same,haemodynamic effect at low plasma concentrations,"[4]; plasma concentration <1 ng/ml, agonism at alpha2 receptors in the central nervous system",decrease in peripheral vascular resistance and heart rate
same,haemodynamic effect at higher plasma concentrations,"[4]; plasma concentration >4 ng/ml, agonism at alpha2 receptors on vascular smooth muscle",hypertension and worsening reflex bradycardia
same,HR,[4]; [5],> 75 % from baseline
same,MAP,[4]; [5],near-baseline
same,level of sedation,[4]; [5],moderately sedated
